Measured values published in publication PMC10673995, “Discovery of a novel cardiac-specific myosin modulator using artificial intelligence-based virtual screening” (Nature Communications, 2023).
Values joined by “and” are separate entries in the source; they are usually repeats but may differ in a detail not shown here. Identical values can stand only once.

Tested on: isolated Langendorff-perfused rat hearts
Assay: Langendorff-perfused rat hearts, haemodynamic parameters
Design: key to LVSP, individual hearts / LVEDP, individual hearts: pressure in mmHg; Max (Figure 5c): unit not given here
Conditions: for Max (Figure 5c): one column per heart
Method: Next, we tested for the functional effects of F10 in isolated Langendorff-perfused rat hearts. Hearts were initially stabilized in modified Krebs-Henseleit (KH) solution for about 25–30 min and subsequently perfused with KH solution containing 20 μmol L^−1 F10 for 5 mins to reach a new steady state.
Rat hearts were Langendorff-perfused as described previously. Briefly, Wistar rats (Rattus norvegicus, male, 200–250 g, 7 weeks old) were anesthetized by injection of 0.9 mL sodium pentobarbitone 20% (w/v). […] The aorta was cannulated and secured with sutures (Mersilk 3‐0; Ethicon, Somerville, NJ, USA). Hearts were perfused at a constant perfusion pressure of 70 ± 2 mmHg using a peristaltic pump (Gilson Minipuls 4, Middleton, WI, USA) and a feedback control system (STH Pump Controller; AD Instruments, Oxford, UK). […] A fluid‐filled balloon, attached to a pressure transducer, was inserted into the left ventricle and inflated to give an end‐diastolic pressure between 3 and 8 mmHg. Left ventricular pressure (LVP), perfusion pressure, coronary flow and arterial and venous oxygen tensions were recorded using a PowerLab recorder and LabChart 8.0 software (ADInstruments). Functional parameters were averaged for ∼80 cardiac cycles at 5 min intervals.

[1] = 20 μmol L^−1 F10 or 1 μmol L^−1 Mavacamten
[2] = Time 11 min, during perfusion with 20 μmol L^−1 F10 or 1 μmol L^-1 Mavacamten
[3] = Time 12 min, during perfusion with 20 μmol L^−1 F10 or 1 μmol L^-1 Mavacamten
[4] = Time 13 min, during perfusion with 20 μmol L^−1 F10 or 1 μmol L^-1 Mavacamten
[5] = Time 14 min, during perfusion with 20 μmol L^−1 F10 or 1 μmol L^-1 Mavacamten
[6] = Time 15 min, during perfusion with 20 μmol L^−1 F10 or 1 μmol L^-1 Mavacamten

What does the source list for `CC(C)n1c(=O)cc(N[C@@H](C)c2ccccc2)[nH]c1=O` [Mavacamten]?
effect on coronary perfusion / coronary flow [1]: without affecting; effect on heart rate [1]: without affecting; effect on left ventricular end-diastolic pressure (LVEDP) [1]: did not affect; Max (Figure 5c) (Time 0 min): 3876.58 and 5238.56 and 5331.08 and 5274.63; Max (Figure 5c) (Time 1 min): 3763.48 and 5575.44 and 5372.46 and 4664.37; Max (Figure 5c) (Time 2 min): 3604.67 and 5570.63 and 5457.56 and 4849.22; Max (Figure 5c) (Time 3 min): 3616.7 and 5958.05 and 5555.1 and 4920.12; Max (Figure 5c) (Time 4 min): 3720.17 and 5852.17 and 5485.6 and 4634; Max (Figure 5c) (Time 5 min): 3611.89 and 6003.77 and 5528.57 and 4575.4; Max (Figure 5c) (Time 6 min): 3669.64 and 6398.4 and 5572.15 and 4575.4; Max (Figure 5c) (Time 7 min): 3638.35 and 5690.95 and 5454.91 and 4575.4; Max (Figure 5c) (Time 8 min): 3568.57 and 5926.76 and 5613.04 and 4575.4; Max (Figure 5c) (Time 9 min): 3638.35 and 6073.55 and 6702.43 and 4575.4; Max (Figure 5c) (Time 10 min): 3558.95 and 6376.75 and 5920.41 and 4694.75; LVEDP, individual hearts [2]: 1 mmHg (2×) and 2 mmHg (2×) and 3 mmHg; LVSP, individual hearts [2]: 91 and 157 and 150 and 205 and 152; Max (Figure 5c) (Time 11 min): 3462.69 and 5852.17 and 5171.55 and 4904.93; LVEDP, individual hearts [3]: 0 and 1 (2×) and 2 and 3; LVSP, individual hearts [3]: 71 and 113 and 134 and 163 and 147; Max (Figure 5c) (Time 12 min): 2779.3 and 4057.05 and 4519.31 and 4773.25; LVEDP, individual hearts [4]: 0 and 1 (2×) and 3 and 5; LVSP, individual hearts [4]: 60 and 95 and 115 and 137 and 135; Max (Figure 5c) (Time 13 min): 2415.94 and 3070.46 and 3716.1 and 3709.72; LVEDP, individual hearts [5]: 0 and 1 (2×) and 2 and 5; LVSP, individual hearts [5]: 51 and 81 and 104 and 115 and 105; Max (Figure 5c) (Time 14 min): 2076.65 and 2695.08 and 3441.74 and 3481.82; LVEDP, individual hearts [6]: 0 and 1 (2×) and 2 and 7; LVSP, individual hearts [6]: 45 and 71 and 97 and 99 and 100; Max (Figure 5c) (Time 15 min): 1876.93 and 2447.23 and 3260.21 and 3233.66; LVEDP, individual hearts (Time 16 min, after washout): 0 and 1 (2×) and 3 and 5; LVSP, individual hearts (Time 16 min, after washout): 44 and 65 and 100 and 90 and 98; LVEDP, individual hearts (Time 17 min, after washout): 0 and 1 (2×) and 3 and 2; LVSP, individual hearts (Time 17 min, after washout): 49 and 71 and 103 and 101 and 98; LVEDP, individual hearts (Time 18 min, after washout): 1 mmHg (4×) and 3 mmHg; LVSP, individual hearts (Time 18 min, after washout): 52 and 78 and 106 and 103 and 96; LVEDP, individual hearts (Time 19 min, after washout): 1 mmHg (4×) and 2 mmHg; LVSP, individual hearts (Time 19 min, after washout): 55 and 83 and 109 (2×) and 98; LVEDP, individual hearts (Time 20 min, after washout): 1 mmHg (3×) and 2 mmHg (2×); LVSP, individual hearts (Time 20 min, after washout): 58 and 87 and 114 (2×) and 98; Max (Figure 5c) (Time 20 min): 2218.63 and 2954.96 and 3682.2 and 4327.58; LVEDP, individual hearts (Time 21 min, after washout): 1 mmHg (3×) and 2 mmHg (2×); LVSP, individual hearts (Time 21 min, after washout): 60 and 101 (2×) and 118 (2×); Max (Figure 5c) (Time 21 min): 2317.29 and 3027.15 and 3768.27 and 4469.39; LVEDP, individual hearts (Time 22 min, after washout): 1 mmHg (4×) and 0 mmHg; LVSP, individual hearts (Time 22 min, after washout): 63 and 96 and 122 and 121 and 125; Max (Figure 5c) (Time 22 min): 2358.19 and 3503.6 and 3945.22 and 4568.14; LVEDP, individual hearts (Time 23 min, after washout): 1 mmHg (2×) and 0 mmHg and 2 mmHg and 3 mmHg; LVSP, individual hearts (Time 23 min, after washout): 66 and 99 and 125 and 126 and 103; Max (Figure 5c) (Time 23 min): 2526.64 and 3729.79 and 4137.98 and 4461.79; LVEDP, individual hearts (Time 24 min, after washout): 1 mmHg (4×) and 0 mmHg; LVSP, individual hearts (Time 24 min, after washout): 67 and 106 and 126 and 130 and 104; Max (Figure 5c) (Time 24 min): 2654.17 and 3905.46 and 4295.47 and 4963.17; LVEDP, individual hearts (Time 25 min, after washout): 1 and 0 (2×) and 3 and 2; LVSP, individual hearts (Time 25 min, after washout): 67 and 105 and 127 and 133 and 110; Max (Figure 5c) (Time 25 min): 2752.83 and 3729.79 and 4394.02 and 5097.38; LVSP representative trace, OFF (after washout, t 0 s): 97.9459 mmHg; LVSP representative trace, OFF (after washout, t 10 s): 98.66 mmHg; LVSP representative trace, OFF (after washout, t 20 s): 99.4941 mmHg; LVSP representative trace, OFF (after washout, t 30 s): 99.8652 mmHg; LVSP representative trace, OFF (after washout, t 40 s): 99.9074 mmHg; LVSP representative trace, OFF (after washout, t 50 s): 100.799 mmHg; LVSP representative trace, OFF (after washout, t 60 s): 101.94 mmHg
